The text below walks through data of EP0452935B1, “Chiral 2-(phosphonomethoxy)propyl guanines as antiviral agents” (INSTITUTE OF ORGANIC CHEMISTRY AND BIOCHEMISTRY OF THE …, priority 1990, dated 1991).

Holding throughout (type): cell-based
Data set [1] is described as follows: in vitro. The conditions noted are these: human, cem-ss cells. The procedure:
(§1) Compounds were evaluated for activity against human immunodeficiency virus (LAVBRU strain obtained from Luc Montagnier, Institut Pasteur, Paris, France) in CEM-SS cells (P. L. Nara et al., in AIDS Res. Human. Retroviruses, 1987, 3, 283-302) or in MT-4 cells (S. Harada, et al., in Science, 1985, 229, 563-566) using the XTT assay described by O. S. Weislow et al., in J. Natl. Cancer Instit., 1989, 81, 577-586. CEM-SS cells were obtained from Owen Weislow at the National Cancer Institute, and MT-4 cells were obtained from Doug Richman at the University of California at San Diego. Cells were exposed to HIV and cultured in microtiter plates in the presence of test compounds at concentrations of 0.0013, 0.0064, 0.032, 0.16, 0.8, 4, 20, 100, and 500 »M. On day 7 post-infection, the antiviral effect was measured using the XTT assay in which an optical density (OD) reading is obtained at each drug concentration. The optical density reading is proportional to the number of viable cells. Assays run in infected cells show the antiviral effect of the test compounds, where an increase in the number of viable cells (higher OD reading) reflects the protective, antiviral activity of the compound. Assays run in uninfected cells provide a measure of cellular toxicity. The antiviral effect is also expressed (see Table 2) as the concentration of compound which increases the number of viable cells in infected cultures to 50%, that of the untreated, uninfected control cultures (ED₅₀). The cellular toxicity is expressed as the concentration of compound which reduces the number of viable cells to 50%, that of the untreated control (TD₅₀). The selectivity index (SI) is the ratio of TD₅₀ to ED₅₀. The anti-HIV activity and cellular toxicity of the test compounds are plotted in FIGS. 1-7 as a function of optical density verus increasing log concentrations of the test compounds (XTT assay).

The nature of data set [2]: in vitro. The settings on record: human, mt-4 cells. The method, then:
as §1, with “The antiviral effect is also expressed (see Table 2) as the concentration of compound which increases the number of viable cells in infected cultures to 50%, that of the untreated, uninfected control cultures (ED₅₀). The cellular toxicity is expressed as the concentration of compound which reduces the number of viable cells to 50%, that of the untreated control (TD₅₀). The selectivity index (SI) is the ratio of TD₅₀ to ED₅₀. The anti-HIV activity and cellular toxicity of the test compounds are plotted in FIGS. 1-7 as a function of optical density verus increasing log concentrations of the test compounds (XTT assay).” left out

In data set [3] the test system is herpes simplex virus Type 2 (HSV-2). In words: plaque reduction assay, HSV-2 in vero cells. The conditions noted are these: Human alphaherpesvirus 2, G strain, 48 hour incubation. The method, then:
(§2) The compounds were evaluated for antiviral activity in vitro by the standard plaque reduction assay. Experiments were conducted with vero cells (African Green Monkey Kidney cells) infected with herpes simplex virus Type 1 (HSV-1) [BW^s strain, C. D. Sibrack et al., Infect. Dis., 1982, 146, 673] and herpes simplex virus Type 2 (HSV-2) [G strain, obtained from American Tissue Culture Collection, Rockville, MD] and with MRC-5 cells (human embryonic lung (diploid) cells) infected with human cytomegalovirus (HCMV) [AD169 strain, obtained from American Tissue Culture Collection, Rockville, MD]. Briefly, confluent cell monolayers in 24-well plates were infected with 30-50 plaque-forming units of virus in 100 »l of phosphate-buffered saline. After a 1 hour adsorption period, residual inoculum was replaced with 1 mL of the appropriate dilution of the test compound which had been freshly prepared in Eagle's minimal essential medium (EMEM) containing 10% fetal bovine serum. After a 48 hour incubation period at 37°C in a 5% CO₂ atmosphere, cell monolayers were fixed and stained with Carbol fuchsin and plaques were counted. The antiviral potency of the compound was determined by IC₅₀, the inhibitory concentration necessary to reduce the number of plaques by 50% of those in the virus control cultures.
For orientation: Plaque reduction counts the foci of infection that form in a cell layer.

Data set [4] relates to human immunodeficiency virus (LAVBRU strain). Put plainly: anti-HIV XTT assay in infected CEM-SS cells. The conditions noted are these: for anti-HIV activity (in words): XTT assay (FIGS. 4, 6, 7); for EC50: infected CEM-SS cells, XTT assay, day 7 post-infection, viable cells increased to 50% of uninfected control, NA = Not active at concentrations up to 500 µM, read-out: ED50 (the source's name); for SI: Selectivity Index: Ratio of TD50 to ED50, CEM-SS cells, 10080 min. The procedure:
as §1
For orientation: Formazan colour is commonly taken as a measure of viable cells.

For data set [5], the system named is human cytomegalovirus (HCMV). Put plainly: plaque reduction assay, HCMV in MRC-5 cells. The conditions noted are these: Human betaherpesvirus 5, MRC5, AD169 strain. The method, then:
as §2

For data set [6], the system named is herpes simplex virus Type 1 (HSV-1). Put plainly: plaque reduction assay, HSV-1 in vero cells. The conditions noted are these: Human alphaherpesvirus 1, BW^s strain, 48 hour incubation. The method, then: as §2
Data set [7] deals with CEM-SS cells. In words: in vitro. The method, then:
as §1

Data set [8] has as its system human immunodeficiency virus (LAVBRU strain). In words: anti-HIV XTT assay in infected MT-4 cells. The conditions noted are these: MT4 cells, XTT assay (FIG. 2). The procedure: as §1, with “The antiviral effect is also expressed (see Table 2) as the concentration of compound which increases the number of viable cells in infected cultures to 50%, that of the untreated, uninfected control cultures (ED₅₀). The cellular toxicity is expressed as the concentration of compound which reduces the number of viable cells to 50%, that of the untreated control (TD₅₀). The selectivity index (SI) is the ratio of TD₅₀ to ED₅₀. The anti-HIV activity and cellular toxicity of the test compounds are plotted in FIGS. 1-7 as a function of optical density verus increasing log concentrations of the test compounds (XTT assay).” left out

The mark [9] stands for this setting: Human immunodeficiency virus 1, 168 h.

Converted amounts (≈) assume the structure as drawn.

What is called CC50 is the concentration giving 50% cytotoxicity. Read a high CC50 as better tolerance by the cells. In general, IC50 refers to the midpoint of a concentration-inhibition curve. A low value points to higher potency.

On to `C[C@H](Cn1cnc2c(=O)[nH]c(N)nc21)OCP(=O)(O)O` [(R)-2'-methyl-PMEG, (R)-9-[2-(phosphonomethoxy)propyl]guanine], for which, in data set [1], the CC50 is over 500 µM. This compound also returned an MNTC in data set [1] of under 100 µM. In data set [2], this compound gave an MNTC at 168 h of under 100 µM. The IC50 in data set [3] was 25 µg/mL (≈ 82.4 µM); in data set [5], 5 µg/mL (≈ 16.5 µM). In addition, in data set [4] (CEM-SS cells), the “anti-HIV activity (in words)” value was “active”. In addition, the EC50 in data set [4] (setting [9]) was found to be 1 µM.

Consider `Nc1nc2c(ncn2C[C@H](CO)OCP(=O)(O)O)c(=O)[nH]1` [(R)-HPMPG, (R)-9-[3-hydroxy-2-(phosphonomethoxy)propyl]guanine], for which the CC50 in data set [1] is over 500 µM. The IC50 in data set [6] was determined as 32 µg/mL (≈ 100 µM); in data set [3], 32 µg/mL (≈ 100 µM); in data set [5], 0.5 µg/mL (≈ 1.57 µM). Besides, the “anti-HIV activity (in words)” value in data set [4] (CEM-SS cells) is “clearly inactive”. Moreover, the EC50 in data set [4] (setting [9]) stood at 500 µM. In addition, the SI in data set [4] is reported as over 1.

`C[C@@H](Cn1cnc2c(=O)[nH]c(N)nc21)OCP(=O)(O)O` [(S)-2'-methyl-PMEG, (S)-9-[2-(phosphonomethoxy)propyl]guanine] came in with a CC50 in data set [1] of 300 µM. The same compound gave an MNTC in data set [1] of under 100 µM. The IC50 was 25 µg/mL (≈ 82.4 µM) in data set [3] and 5 µg/mL (≈ 16.5 µM) in data set [5]. Besides, in data set [4] (CEM-SS cells), the “anti-HIV activity (in words)” value is “active”. Further, the EC100 in data set [4] (Human immunodeficiency virus 1, 168 h, CEM-SS cells, XTT assay (FIGS. 3, 5), read-out: concentration giving complete protection from HIV) was found to be 100 µM. Moreover, in data set [4] (setting [9]), the EC50 was 12 µM. Besides, the SI in data set [4] is listed as 25.

Turning to `Nc1nc2c(ncn2C[C@@H](CO)OCP(=O)(O)O)c(=O)[nH]1` [(S)-HPMPG, (S)-9-[3-hydroxy-2-(phosphonomethoxy)propyl]guanine], half-maximal cytotoxicity in data set [1] (CC50) was put at 350 µM. For the same compound, the IC50 in data set [6] was 8 µg/mL (≈ 25.1 µM); in data set [3], 31 µg/mL (≈ 97.1 µM); in data set [5], 0.9 µg/mL (≈ 2.82 µM). Moreover, the “anti-HIV activity (in words)” value in data set [4] (CEM-SS cells) was “clearly inactive”.

Turning to `Nc1nc2c(ncn2CCOCP(=O)(O)O)c(=O)[nH]1` [PMEG, 9-[2-(phosphonomethoxy)ethyl]guanine], the “cytotoxicity relative to (R)-2'-methyl-PMEG” value in data set [7] is recorded as “approximately 30 fold”. The CC50 in data set [7] (human, cem-ss cells) was 15 µM. This compound also gave an MCC at 168 h in data set [2] of over 100 nM. For the same compound, the IC50 in data set [6] was 0.09 µg/mL (≈ 0.311 µM); in data set [3], 0.31 µg/mL (≈ 1.07 µM); in data set [5] it was under 0.1 µg/mL. In addition, the “anti-HIV effect (in words)” value in data set [8] was “no anti-HIV effect can be measured”. Further, the “anti-HIV activity (in words)” value in data set [4] (CEM-SS cells) is “some anti-HIV effect”. Further, in data set [4] (setting [9]), the EC50 was 0.2 µM. Moreover, the SI in data set [4] was determined as 30.
